In ChEMBL document CHEMBL1201862, “PubChem BioAssay data set” (2004):
The source made the active and inactive calls.

Legend:
[1] = tested on: Streptococcus sp. 'group A'; experiment: Streptococcus pyogenes SK(-)GAS viability under kanamycin – luminescence, BacTiterGlo, confirmation, counter-screen for streptokinase expression inhibitor project, dose response (AID 1900); type: functional, organism-based
Streptococcus [2] = experiment: Luminescence Microorganism-Based Dose Response Follow up to Identify Compounds Cytotoxic to Streptococcus. [Related pubchem assays: 1677 (Project Summary), 1915, 1914, 1902 (Retest at Dose), 1900 (Counter Screen), 1662 (Primary HTS)]; type: functional, organism-based
Streptokinase A = target: T1, Streptokinase A (Streptococcus pyogenes serotype M1, UniProt P10520); experiment: viability-normalized secreted streptokinase activity reduction – plasminogen activation absorbance, OD405, dose response (AID 1914); type: functional, Streptococcus pyogenes M1 GAS;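 further: secreted streptokinase activity via plasminogen activation per viability signal from cell pellet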
T1 sequence (P10520 whole entry): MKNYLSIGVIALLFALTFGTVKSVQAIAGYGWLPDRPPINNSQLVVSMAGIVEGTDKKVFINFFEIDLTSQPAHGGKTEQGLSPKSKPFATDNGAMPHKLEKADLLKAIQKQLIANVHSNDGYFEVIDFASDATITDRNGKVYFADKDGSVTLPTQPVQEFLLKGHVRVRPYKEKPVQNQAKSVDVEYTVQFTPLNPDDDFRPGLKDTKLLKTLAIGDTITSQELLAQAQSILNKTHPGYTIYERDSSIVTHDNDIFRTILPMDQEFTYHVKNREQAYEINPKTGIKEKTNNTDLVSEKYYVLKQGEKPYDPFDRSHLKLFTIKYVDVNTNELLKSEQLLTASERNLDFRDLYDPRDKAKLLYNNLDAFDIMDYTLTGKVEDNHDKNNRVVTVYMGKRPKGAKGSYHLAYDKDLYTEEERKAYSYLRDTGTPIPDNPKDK

Streptococcus [3] = experiment: GAS UMAA2166 growth inhibition – luminescence, BacTiterGlo, counter-screen for streptokinase expression inhibitor project, dose response (AID 1915); type: functional, organism-based;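 further: potency for reduction of bacterial viability or growth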
Cytochrome P450 2C9 = Cytochrome P450 2C9 (Homo sapiens, UniProt P11712); conditions: Potency
Tumor necrosis factor = Tumor necrosis factor (Homo sapiens, UniProt P01375); experiment: analog potency on TNFa NF-kB signaling – cell-based, revised, SAR follow-up (AID 2337); type: functional
Interleukin-8 = Interleukin-8 (Homo sapiens, UniProt P10145); experiment: SAR analysis of tumor necrosis factor alpha (TNF-alpha) induced IL-8 secretion in MCF-7/NOD1 cells. [Related pubchem assays (depositor defined):AID1575, AID2250, AID2260]; type: functional, cell-based
HEK293 [4] = experiment: SAR analysis of compounds that are cytotoxic to HEK293 - Set 3. [Related pubchem assays (depositor defined):AID1575, AID1578, AID1848, AID1849, AID2001, AID2333, AID2334, AID2335, AID2337, AID2469]; type: functional, cell-based; conditions: Homo sapiens
HEK293 [5] = experiment: cells; conditions: Homo sapiens
[6] = target: Mothers against decapentaplegic homolog 3 (Homo sapiens, UniProt P84022); experiment: blockers of Smad3 complex formation in lysate – cell lysate, secondary confirmation, chemiluminescent ELISA, HEK293 lysate, dose response (AID 1058); type: functional
[7] = target: T2, Short transient receptor potential channel 4 (Mus musculus, UniProt Q9QUQ5); experiment: potentiation of DAMGO-evoked TRPC4 calcium signal – cell-based, HEK293 TRPC4/mu-opioid, Fluo-4 calcium, EC20 DAMGO, dose response (AID 434941); type: functional
T2 sequence (Q9QUQ5 whole entry): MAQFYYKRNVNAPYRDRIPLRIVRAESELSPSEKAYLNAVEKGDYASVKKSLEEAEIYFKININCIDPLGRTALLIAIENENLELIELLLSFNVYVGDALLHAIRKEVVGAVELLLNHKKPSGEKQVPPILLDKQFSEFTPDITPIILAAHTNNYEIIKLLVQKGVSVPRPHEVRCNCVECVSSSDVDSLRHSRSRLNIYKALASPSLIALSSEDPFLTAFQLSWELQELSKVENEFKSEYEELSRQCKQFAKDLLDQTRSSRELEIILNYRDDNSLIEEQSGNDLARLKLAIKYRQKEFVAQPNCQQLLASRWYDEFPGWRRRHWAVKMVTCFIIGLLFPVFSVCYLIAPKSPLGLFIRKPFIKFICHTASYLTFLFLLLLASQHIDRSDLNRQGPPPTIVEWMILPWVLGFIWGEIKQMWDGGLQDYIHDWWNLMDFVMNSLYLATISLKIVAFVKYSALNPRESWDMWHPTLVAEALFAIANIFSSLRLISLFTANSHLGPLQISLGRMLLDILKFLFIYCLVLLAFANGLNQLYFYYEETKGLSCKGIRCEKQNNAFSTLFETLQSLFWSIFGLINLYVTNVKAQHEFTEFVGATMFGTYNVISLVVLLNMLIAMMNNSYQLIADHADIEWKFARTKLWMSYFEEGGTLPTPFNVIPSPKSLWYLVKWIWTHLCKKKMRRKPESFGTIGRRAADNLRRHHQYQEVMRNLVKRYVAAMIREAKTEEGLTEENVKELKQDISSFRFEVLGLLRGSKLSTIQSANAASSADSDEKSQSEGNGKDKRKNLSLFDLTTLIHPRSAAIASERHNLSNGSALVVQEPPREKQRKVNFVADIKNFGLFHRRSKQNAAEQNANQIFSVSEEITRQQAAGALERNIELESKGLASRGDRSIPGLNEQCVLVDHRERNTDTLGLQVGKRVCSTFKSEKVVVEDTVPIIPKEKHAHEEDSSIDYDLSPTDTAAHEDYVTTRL

[8] = target: T3, Tyrosine-protein phosphatase non-receptor type 7 (Homo sapiens, UniProt P35236); type: functional
T3 sequence (P35236 whole entry): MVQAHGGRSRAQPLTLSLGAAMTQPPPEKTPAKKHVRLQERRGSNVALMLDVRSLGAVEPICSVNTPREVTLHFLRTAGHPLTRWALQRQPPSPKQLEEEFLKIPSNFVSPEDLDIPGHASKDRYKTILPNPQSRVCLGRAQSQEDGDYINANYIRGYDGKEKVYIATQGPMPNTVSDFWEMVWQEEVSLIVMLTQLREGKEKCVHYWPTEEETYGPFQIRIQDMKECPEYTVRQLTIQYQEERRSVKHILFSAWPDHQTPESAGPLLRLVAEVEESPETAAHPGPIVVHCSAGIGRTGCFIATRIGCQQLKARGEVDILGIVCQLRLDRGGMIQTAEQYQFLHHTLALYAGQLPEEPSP

[9] = target: Glyceraldehyde-3-phosphate dehydrogenase (Homo sapiens, UniProt P04406)
[10] = target: Heat shock cognate 71 kDa protein (Homo sapiens, UniProt P11142); experiment: In Vitro Hsc70 Dose Response Fluorescence Polarization Assay. [Related pubchem assays: 1072 ]
[11] = target: Heat shock 70 kDa protein 1A (Homo sapiens, UniProt P0DMV8); experiment: inhibition of Hsp70 binding activity – biochemical, fluorescence polarization, SAR follow-up (AID 1072)
[12] = target: T4, Dual specificity protein phosphatase 6 (Rattus norvegicus, UniProt Q64346)
T4 sequence (Q64346 whole entry): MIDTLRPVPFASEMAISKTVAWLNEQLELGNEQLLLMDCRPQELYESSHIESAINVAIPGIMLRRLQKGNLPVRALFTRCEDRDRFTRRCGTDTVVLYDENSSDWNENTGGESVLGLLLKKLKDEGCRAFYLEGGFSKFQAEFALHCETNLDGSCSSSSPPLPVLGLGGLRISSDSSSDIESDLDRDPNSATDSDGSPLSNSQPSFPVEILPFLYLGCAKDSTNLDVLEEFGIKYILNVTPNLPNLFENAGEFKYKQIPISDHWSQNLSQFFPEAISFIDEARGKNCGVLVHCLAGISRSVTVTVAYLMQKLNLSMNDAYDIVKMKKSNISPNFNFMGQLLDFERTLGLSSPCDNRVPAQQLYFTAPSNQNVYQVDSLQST

[13] = target: T4, Dual specificity protein phosphatase 6; type: functional
[14] = target: Cyclin-dependent kinase 5/CDK5 activator 1 (Homo sapiens, UniProt Q00535); experiment: blockade of human CDK5 activity – biochemical, cherry-picked samples, set 2, dose response (AID 504545)
[15] = target: Scavenger receptor class B member 1 (Mus musculus, UniProt Q61009); experiment: mouse SR-BI DiI-HDL uptake blockers – ldlA[mSR-BI] cells, fluorescence, cherry pick, dose response (AID 493194); type: functional, cell-based;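 further: cellular uptake of fluorescent DiI-labeled HDL measured as cell fluorescence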
Chain of Scavenger receptor class B member 1 (Q61009 whole entry): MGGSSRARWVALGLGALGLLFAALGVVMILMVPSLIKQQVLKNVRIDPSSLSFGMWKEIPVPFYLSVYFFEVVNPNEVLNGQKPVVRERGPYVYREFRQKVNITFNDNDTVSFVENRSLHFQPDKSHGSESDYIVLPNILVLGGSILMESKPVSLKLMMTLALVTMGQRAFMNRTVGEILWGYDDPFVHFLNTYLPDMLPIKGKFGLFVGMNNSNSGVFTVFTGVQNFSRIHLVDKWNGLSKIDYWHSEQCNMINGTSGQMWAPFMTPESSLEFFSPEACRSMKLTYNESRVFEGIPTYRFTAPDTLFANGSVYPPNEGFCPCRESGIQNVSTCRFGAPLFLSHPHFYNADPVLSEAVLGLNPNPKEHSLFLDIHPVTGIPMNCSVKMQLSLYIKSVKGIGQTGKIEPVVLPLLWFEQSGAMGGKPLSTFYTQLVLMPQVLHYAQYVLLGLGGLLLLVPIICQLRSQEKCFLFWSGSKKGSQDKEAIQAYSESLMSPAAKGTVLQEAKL

Chain of Heat shock 70 kDa protein 1A (P0DMV8 whole entry): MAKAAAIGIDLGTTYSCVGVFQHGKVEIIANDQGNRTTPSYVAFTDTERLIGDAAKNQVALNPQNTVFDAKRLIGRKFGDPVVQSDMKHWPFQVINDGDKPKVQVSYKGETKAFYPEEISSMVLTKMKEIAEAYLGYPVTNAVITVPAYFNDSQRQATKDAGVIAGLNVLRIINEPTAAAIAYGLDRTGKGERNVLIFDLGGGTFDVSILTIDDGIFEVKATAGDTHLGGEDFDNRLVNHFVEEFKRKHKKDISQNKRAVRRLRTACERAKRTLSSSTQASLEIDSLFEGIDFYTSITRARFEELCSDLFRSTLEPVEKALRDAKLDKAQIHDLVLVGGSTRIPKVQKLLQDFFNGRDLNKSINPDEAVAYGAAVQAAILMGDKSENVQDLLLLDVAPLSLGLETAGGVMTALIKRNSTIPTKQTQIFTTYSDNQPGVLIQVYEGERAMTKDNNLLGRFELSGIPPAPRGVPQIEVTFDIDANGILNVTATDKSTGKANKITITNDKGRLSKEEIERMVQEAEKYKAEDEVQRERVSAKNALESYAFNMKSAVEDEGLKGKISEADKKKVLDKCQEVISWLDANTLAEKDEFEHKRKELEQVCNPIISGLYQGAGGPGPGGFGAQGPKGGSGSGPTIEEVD
Chain of Heat shock cognate 71 kDa protein (P11142 whole entry): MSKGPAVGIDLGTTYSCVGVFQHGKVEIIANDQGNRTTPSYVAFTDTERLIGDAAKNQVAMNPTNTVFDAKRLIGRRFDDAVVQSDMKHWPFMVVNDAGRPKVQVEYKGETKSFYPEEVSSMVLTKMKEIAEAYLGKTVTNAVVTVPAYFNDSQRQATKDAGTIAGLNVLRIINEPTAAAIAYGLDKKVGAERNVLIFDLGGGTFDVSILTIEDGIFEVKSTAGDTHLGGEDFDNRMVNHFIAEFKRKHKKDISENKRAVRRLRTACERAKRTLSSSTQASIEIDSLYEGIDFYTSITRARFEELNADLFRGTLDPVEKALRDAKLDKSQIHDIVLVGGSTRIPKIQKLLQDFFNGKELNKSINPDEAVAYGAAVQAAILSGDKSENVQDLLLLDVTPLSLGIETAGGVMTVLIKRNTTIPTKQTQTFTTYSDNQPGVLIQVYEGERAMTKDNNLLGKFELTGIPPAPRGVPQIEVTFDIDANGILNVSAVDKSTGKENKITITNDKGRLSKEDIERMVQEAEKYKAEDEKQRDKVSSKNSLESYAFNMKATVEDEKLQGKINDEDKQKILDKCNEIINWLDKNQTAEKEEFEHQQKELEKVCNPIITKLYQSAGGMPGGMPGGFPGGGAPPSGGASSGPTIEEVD
Chain of Tumor necrosis factor (P01375 whole entry): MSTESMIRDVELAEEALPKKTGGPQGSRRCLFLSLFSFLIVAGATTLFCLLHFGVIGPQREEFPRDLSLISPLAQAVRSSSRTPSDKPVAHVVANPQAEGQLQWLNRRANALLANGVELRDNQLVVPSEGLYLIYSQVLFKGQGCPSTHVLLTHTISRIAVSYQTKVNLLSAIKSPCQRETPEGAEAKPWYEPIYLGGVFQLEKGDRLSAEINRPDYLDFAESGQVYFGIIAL
Chain of Cytochrome P450 2C9 (P11712 whole entry): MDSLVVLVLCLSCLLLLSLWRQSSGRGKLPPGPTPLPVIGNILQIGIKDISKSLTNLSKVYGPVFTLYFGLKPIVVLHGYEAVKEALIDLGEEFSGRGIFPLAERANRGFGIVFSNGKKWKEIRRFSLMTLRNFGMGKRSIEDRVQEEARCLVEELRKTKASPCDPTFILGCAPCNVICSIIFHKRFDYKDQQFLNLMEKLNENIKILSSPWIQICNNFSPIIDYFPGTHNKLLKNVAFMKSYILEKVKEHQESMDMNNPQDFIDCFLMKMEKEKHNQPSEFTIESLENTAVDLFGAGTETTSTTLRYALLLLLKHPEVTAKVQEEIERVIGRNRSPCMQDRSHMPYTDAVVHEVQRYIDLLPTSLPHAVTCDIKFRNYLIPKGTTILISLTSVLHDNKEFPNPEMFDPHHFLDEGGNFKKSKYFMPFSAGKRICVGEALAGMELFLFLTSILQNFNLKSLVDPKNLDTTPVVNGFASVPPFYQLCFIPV
Chain of Glyceraldehyde-3-phosphate dehydrogenase (P04406 whole entry): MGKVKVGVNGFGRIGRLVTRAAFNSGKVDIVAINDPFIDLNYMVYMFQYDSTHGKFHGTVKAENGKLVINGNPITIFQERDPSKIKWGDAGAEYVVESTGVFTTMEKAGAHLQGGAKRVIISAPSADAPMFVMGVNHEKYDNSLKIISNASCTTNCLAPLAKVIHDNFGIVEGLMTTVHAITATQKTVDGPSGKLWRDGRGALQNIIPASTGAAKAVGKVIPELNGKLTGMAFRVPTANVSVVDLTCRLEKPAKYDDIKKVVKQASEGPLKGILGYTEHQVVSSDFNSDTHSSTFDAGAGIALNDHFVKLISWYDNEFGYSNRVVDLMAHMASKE
Chain of Mothers against decapentaplegic homolog 3 (P84022 whole entry): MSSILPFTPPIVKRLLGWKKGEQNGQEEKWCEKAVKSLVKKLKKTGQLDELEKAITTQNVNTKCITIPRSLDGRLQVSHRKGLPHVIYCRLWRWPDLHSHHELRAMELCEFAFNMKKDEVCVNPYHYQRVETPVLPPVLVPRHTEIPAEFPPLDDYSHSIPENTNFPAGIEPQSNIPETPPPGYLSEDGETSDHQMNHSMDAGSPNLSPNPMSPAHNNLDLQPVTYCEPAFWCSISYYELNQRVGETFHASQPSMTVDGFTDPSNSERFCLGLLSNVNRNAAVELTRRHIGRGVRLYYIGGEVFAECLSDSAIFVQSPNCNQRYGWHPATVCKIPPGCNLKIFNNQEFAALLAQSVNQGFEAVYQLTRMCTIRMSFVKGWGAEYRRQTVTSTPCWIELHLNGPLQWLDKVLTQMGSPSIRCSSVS
Chain of Cyclin-dependent kinase 5/CDK5 activator 1 (Q00535 whole entry): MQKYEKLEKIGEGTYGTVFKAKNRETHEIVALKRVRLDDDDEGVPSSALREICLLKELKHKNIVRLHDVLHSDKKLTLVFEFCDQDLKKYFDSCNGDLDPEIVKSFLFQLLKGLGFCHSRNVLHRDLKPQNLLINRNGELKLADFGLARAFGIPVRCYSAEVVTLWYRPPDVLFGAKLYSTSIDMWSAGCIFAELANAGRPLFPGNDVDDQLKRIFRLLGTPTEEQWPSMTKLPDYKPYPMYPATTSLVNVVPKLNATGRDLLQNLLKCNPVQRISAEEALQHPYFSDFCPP
Chain of Cyclin-dependent kinase 5/CDK5 activator 1 (Q15078 whole entry, further chain): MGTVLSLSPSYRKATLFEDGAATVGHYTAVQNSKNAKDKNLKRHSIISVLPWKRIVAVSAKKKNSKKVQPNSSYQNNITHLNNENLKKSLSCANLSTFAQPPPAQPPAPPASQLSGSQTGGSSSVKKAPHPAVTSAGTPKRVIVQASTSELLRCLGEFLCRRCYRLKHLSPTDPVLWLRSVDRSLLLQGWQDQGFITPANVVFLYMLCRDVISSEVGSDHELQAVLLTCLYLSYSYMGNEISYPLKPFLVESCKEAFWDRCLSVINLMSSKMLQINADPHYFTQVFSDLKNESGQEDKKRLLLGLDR
Chain of Interleukin-8 (P10145 whole entry): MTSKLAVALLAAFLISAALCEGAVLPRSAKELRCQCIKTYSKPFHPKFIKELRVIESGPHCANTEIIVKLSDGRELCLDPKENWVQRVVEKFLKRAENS

CC(C)c1ccc(NC(=O)c2cc(S(=O)(=O)NCC3COc4ccccc4O3)ccc2F)cc1 (centres undefined)
EC50 [1]: 12.2 µM (active) | EC50 (Streptococcus [2]): > 500 µM (not active) | EC50 (Streptokinase A): 3.53 µM (active) | EC50 (Streptococcus [3]): 74.4 µM (active)

CC(C)CCN1CCc2nc(COc3ccccc3)c3c(c2C1)COC(C)C3 (centres undefined)
AC50 (Cytochrome P450 2C9): 6.31 µM (inconclusive)

Cc1ccc(S(=O)(=O)n2c(N)nc3cc(C)c(C)cc32)cc1
IC50 (Tumor necrosis factor): > 20 µM (inactive) | IC50 (Interleukin-8): > 5 µM (inactive) | IC50 (HEK293 [4]): > 20 µM (inactive) | IC50 (HEK293 [5]): > 20 µM (inactive)

Oc1cc2c(cc1C(c1ccc(Cl)cc1)N1CCOCC1)OCO2 (centres undefined)
IC50 [6]: 10.3 µM (not active)

Cc1cc(OCC(=O)NC2CCCCC2)ccc1Cl
EC50 [7]: 1.88 µM (active)

COc1ccc2c(c1)C1C=CCC1C(C(=O)O)N2 (centres undefined)
IC50 [8]: 13.2 µM (active) | IC50 [9]: > 100 µM (not active) | IC50 [10]: > 100 µM (not active) | IC50 [11]: 20.6 µM (active) | IC50 [12]: 33.5 µM (active) | IC50 [13]: 32 µM (active)

Clc1cncc(Cl)c1N/N=C/c1ccncc1
AC50 [14]: 52.8 µM (active)

Cc1ccc2oc(-c3cccc(NC(=O)c4cc(-n5cnnc5)ccc4Cl)c3)nc2c1
AC50 [15]: 8.18 µM (active)
